Each structure is given as a SMILES string. Several values for one entry are separate records, joined by “and”; a condition that tells them apart may be missing. Equal entries are not always repeated.

IC50 and melting point data for 17 molecules are collected here from US8227478B2, “JNK modulators” (Roche Palo Alto LLC, priority 2008, dated 2012).

The target of one data set is Human JNK1α1 (Homo sapiens, UniProt P45983). As to the kind of experiment: JNK assay in vitro, phosphorylation of GST-ATF2 (19-96) with [γ-33P] ATP. The class given is biochemical. To be noted: Human JNK1α1, 2 nM enzyme, 1 μM ATF2, 6 μM ATP (Km); read-out: JNK1 - IC50. As for the experimental part: (§1) JNK activity was measured by phosphorylation of GST-ATF2 (19-96) with [γ-^33P] ATP. The enzyme reaction was conducted at Km concentrations of ATP and the substrate at final volume of 40 μl in buffer containing 25 mM HEPES, pH 7.5, 2 mM dithiothreitol, 150 mM NaCl, 20 mM MgCl2, 0.001% Tween® 20, 0.1% BSA and 10% DMSO. Human JNK2α2 assay contains 1 nM enzyme, 1 μM ATF2, 8 μM ATP with 1 uCi [γ-^33P] ATP. Human JNK1α1 assay contains 2 nM enzyme, 1 μM ATF2, 6 μM ATP with 1 μCi [γ-^33P] ATP. Human JNK3 (Upstate Biotech #14-501M) assay contains 2 nM enzyme, 1 μM ATF2, 4 μM ATP with 1 μCi [γ-^33P] ATP. The enzyme assay was carried out in the presence or absence of several compound concentrations. JNK and compound were pre-incubated for 10 min., followed by initiation of the enzymatic reaction by adding ATP and the substrate. The reaction mixture was incubated at 30° C. for 30 min. At the end of incubation, the reaction was terminated by transferring 25 μl of the reaction mixture to 150 μl of 10% glutathione Sepharose® slurry (Amersham #27-4574-01) containing 135 mM EDTA. The reaction product was captured on the affinity resin, and washed on a filtration plate (Millipore, MABVNOB50) with phosphate buffered saline for six times to remove free radionucleotide. The incorporation of ^33P into ATF2 was quantified on a microplate scintillation counter (Packard Topcount). Compound inhibition potency on JNK was measured by IC50 value generated from ten concentration inhibition curves fitted into the 3-parameter model: % inhibition=Maximum/(1+(IC50/[Inhibitor])^slope). Data were analyzed on Microsoft Excel for parameter estimation.
Sequence of Human JNK1α1 (P45983 1-384 isoform P45983-2): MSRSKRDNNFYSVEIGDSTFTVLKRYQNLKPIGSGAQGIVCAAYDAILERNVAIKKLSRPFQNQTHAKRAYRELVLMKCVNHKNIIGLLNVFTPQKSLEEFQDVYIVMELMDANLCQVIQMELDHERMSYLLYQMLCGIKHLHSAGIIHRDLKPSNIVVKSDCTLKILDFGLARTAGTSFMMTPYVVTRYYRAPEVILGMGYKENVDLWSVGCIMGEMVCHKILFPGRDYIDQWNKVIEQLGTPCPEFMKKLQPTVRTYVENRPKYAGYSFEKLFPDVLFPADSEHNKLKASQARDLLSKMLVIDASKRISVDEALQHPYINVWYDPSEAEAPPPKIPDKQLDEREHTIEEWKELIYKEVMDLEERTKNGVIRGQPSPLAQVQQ

A further data set deals with Human JNK2α2 (Homo sapiens, UniProt P45984). Described as above. Format: biochemical. Conditions: Human JNK2α2, 1 nM enzyme, 1 μM ATF2, 8 μM ATP (Km); read-out: JNK2 - IC50. As for the experimental part:
as §1

For the next data set, the system named is phospho-c-Jun. Description: Phospho-c-Jun translocation assay in TNFα-activated SW1353 cells. Format: cell-based. To be noted: Homo sapiens, TNFα 1 ng/ml for 20 min, 30 min compound pre-incubation. An excerpt: Inflammation is regulated in part by the action of c-Jun on other genes in the inflammatory pathway. Thus, inhibition of phosphorylated c-Jun translocation to the nucleus provides an indication of the anti-inflammatory activity of a compound. SW1353 cells were purchased from the American Tissue Culture Collection and maintained in growth media containing DMEM medium (Invitrogen) with 10% fetal bovine serum (Invitrogen), ascorbic acid (Sigma), and penicillin/streptomycin/[…] (Invitrogen) under culture conditions (at 37° C. with 5% CO2). Cells were plated at a density of 8,000 cells/well in 100 μl growth medium 24 h prior to the compound treatment. Immediately before the compound treatment, growth media was replaced with 90 μl of fresh media. Compound stock at 10 mM was first diluted in compound vehicle (DMSO) to 3 mM, then diluted in serum-free medium and added to each well as a 10× concentrated solution in a volume of 10 μl, mixed, and pre-incubated with cells for 30 min at 37° C. in 5% CO2. Compound vehicle (DMSO) was maintained at a final concentration of 1% for all samples. After 30 min incubation, the cells were activated with TNFα (1 ng/ml, Roche Biochem) for 20 min. Cells were then fixed, permeabilized, and stained with anti-phospho-c-Jun antibody (Santa Cruz), followed by Alexa Fluor 488 labeled secondary antibody and Hoechet 33342 dye (Invitrogen) per manufacturer's instructions. The signals of phospho-c-Jun were measured for 400 cells per well by the ArrayScan HCS system (Cellomic). The IC50 values were calculated as the concentration of the compound at which the phospho-c-Jun activity was inhibited to 50% of the control value using the 4-parameter fitting function in the ActivityBase program (IDBS).

Sequence of Human JNK2α2 (P45984 whole entry): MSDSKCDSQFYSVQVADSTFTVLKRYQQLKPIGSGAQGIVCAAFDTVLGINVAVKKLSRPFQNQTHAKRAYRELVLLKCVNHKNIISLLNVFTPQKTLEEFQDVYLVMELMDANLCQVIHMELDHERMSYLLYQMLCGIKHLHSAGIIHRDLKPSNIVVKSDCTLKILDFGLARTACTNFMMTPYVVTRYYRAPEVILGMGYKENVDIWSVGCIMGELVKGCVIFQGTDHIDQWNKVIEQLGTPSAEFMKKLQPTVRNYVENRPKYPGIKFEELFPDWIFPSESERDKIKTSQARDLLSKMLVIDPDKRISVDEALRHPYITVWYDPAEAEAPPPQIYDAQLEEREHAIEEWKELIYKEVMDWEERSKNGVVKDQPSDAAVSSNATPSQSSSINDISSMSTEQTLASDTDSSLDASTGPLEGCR

`Cc1cscc1-c1cccc2c1nnn2-c1ccnc(N[C@H]2CC[C@H](C(=O)N3CCC(O)CC3)CC2)n1` [Compound 1]: the melting point is 246 to 247 °C. Also, the IC50 on Human JNK1α1 was determined as 2.8 nM. In addition, the 50% inhibitory concentration (IC50) at Human JNK2α2 stood at 12.7 nM. The same molecule yielded an IC50 with phospho-c-Jun of 703 nM.

As to `Cc1ccccc1-c1cccc2c1nnn2-c1ccnc(N[C@H]2CC[C@H](C(=O)N3CCC(O)CC3)CC2)n1` [Compound 2, (4-Hydroxy-piperidin-1-yl)-{4-[4-(4-o-tolyl-benzotriazol-1-yl)-pyrimidin-2-ylamino]-cyclohexyl}-methanone], the melting point was 224 to 226 °C and 224.6 to 225.9 °C. For the same molecule, on Human JNK1α1, the concentration for half-maximal inhibition (IC50) amounted to 5.8 nM. Also, the IC50 on Human JNK2α2 amounted to 19.9 nM. Moreover, inhibition in the data set on phospho-c-Jun was half-maximal at 678 nM (IC50).

`Cc1ccncc1-c1cccc2c1nnn2-c1ccnc(N[C@H]2CC[C@H](C(=O)N3CCC(O)CC3)CC2)n1` [Compound 3, (4-Hydroxy-piperidin-1-yl)-(4-{4-[4-(4-methylpyirin-3-yl)-benzotriazol-1-yl]-pyrimidin-2-ylamino}-cyclohexyl)-methanone] yielded a melting point of 194.3 to 218.2 °C. In addition, the half-maximal inhibitory concentration (IC50) at Human JNK1α1 is 27.5 nM. In addition, the IC50 on Human JNK2α2 is 90.4 nM. The IC50 in the data set with phospho-c-Jun was found to be 2820 nM.

With `Cc1noc(C)c1-c1cccc2c1nnn2-c1ccnc(N[C@H]2CC[C@H](C(=O)N3CCC(O)CC3)CC2)n1` [Compound 4, (4-{4-[4-(3,5-Dimethylisoxazol-4-yl)-benzotriazol-1-yl]-pyrimidin-2-ylamino}-cyclohexyl)-(4-hydroxy-piperidin-1-yl)-methanone], the melting point was greater than 300 °C. On Human JNK1α1, the concentration for half-maximal inhibition (IC50) turned out to be 43.2 nM. In addition, the IC50 on Human JNK2α2 was 105 nM. In the data set on phospho-c-Jun, this molecule showed an IC50 of 2580 nM.

As for `Cc1cscc1-c1cccc2c1nnn2-c1ccnc(NC2CCN(S(C)(=O)=O)CC2)n1` [Compound 5, (1-Methanesulfonyl-piperidin-4-yl)-{4-[4-(4-methyl-thiophen-3-yl)-benzotriazol-1-yl]-pyrimidin-2-yl}-amine], the 50% inhibitory concentration (IC50) at Human JNK1α1 stood at 3.6 nM; on Human JNK2α2, 17.8 nM; with phospho-c-Jun, 13900 nM.

For `O=C([C@H]1CC[C@H](Nc2nccc(-n3nnc4c(-c5ccsc5)cccc43)n2)CC1)N1CCC(O)CC1` [Compound 6, (4-Hydroxy-piperidin-1-yl)-{4-[4-(4-thiophen-3-ylbenzotriazol-1-yl)-pyrimidin-2-ylamino]-cyclohexyl}-methanone], the melting point lay within 233 to 234 °C. Besides, the half-inhibitory concentration (IC50) on Human JNK1α1 came to 20.3 nM. On Human JNK2α2, the half-maximal inhibitory concentration (IC50) turned out to be 67.8 nM. The same molecule registered an IC50 with phospho-c-Jun of 3300 nM.

For `Cc1cscc1-c1cccc2c1ccn2-c1ccnc(N[C@H]2CC[C@H](C(=O)N3CCC(O)CC3)CC2)n1` [Compound 7, (4-Hydroxy-piperidin-1-yl)-(4-{4-[4-(4-methyl-thiophen-3-yl)-indol-1-yl]-pyrimidin-2-ylamino}-cyclohexyl)-methanone], the melting point was in the range of 168 to 188 °C. The IC50 on Human JNK1α1 was 33.1 nM. Further, at Human JNK2α2, the IC50 came to 98.7 nM. This molecule also showed an IC50 in the data set on phospho-c-Jun of 8370 nM.

In turn, `O=C([C@H]1CC[C@H](Nc2nccc(-n3nnc4c(-c5ccncc5)cccc43)n2)CC1)N1CCC(O)CC1` [Compound 8] yielded a melting point of 266 to 267 °C. Moreover, on Human JNK1α1, the 50% inhibitory concentration (IC50) is 28.7 nM. For the same molecule, the IC50 at Human JNK2α2 worked out at 91.2 nM. Further, half-maximal inhibition in the data set on phospho-c-Jun (IC50) was put at 5810 nM.

Take `O=C([C@H]1CC[C@H](Nc2nccc(-n3nnc4c(-c5ccoc5)cccc43)n2)CC1)N1CCC(O)CC1` [Compound 9, {4-[4-(4-Furan-3-yl-benzotriazol-1-yl)-pyrimidin-2-ylamino]-cyclohexyl}-(4-hydroxy-piperidin-1-yl)-methanone]: the melting point was 243 to 244 °C. Moreover, on Human JNK1α1, the IC50 came out at 39.7 nM. Further, the half-inhibitory concentration (IC50) at Human JNK2α2 came out at 130 nM. Besides, the IC50 in the data set on phospho-c-Jun is no less than 30000 nM.

The molecule `Cc1n[nH]cc1-c1cccc2c1nnn2-c1ccnc(NC2CCN(S(C)(=O)=O)CC2)n1` [Compound 10, (1-Methanesulfonyl-piperidin-4-yl)-{4-[4-(3-methyl-1H-pyrazol-4-yl)-benzotriazol-1-yl]-pyrimidin-2-yl}-amine] displayed a melting point of 231 to 232 °C. The concentration for half-maximal inhibition (IC50) at Human JNK1α1 turned out to be 3 nM. Besides, the half-maximal inhibitory concentration (IC50) at Human JNK2α2 came out at 14 nM. The half-maximal inhibitory concentration (IC50) in the data set on phospho-c-Jun came out at 2160 nM.

Turning to `Cc1n[nH]cc1-c1cccc2c1nnn2-c1ccnc(N[C@H]2CC[C@H](C(=O)N3CCC(O)CC3)CC2)n1` [Compound 11, (4-Hydroxy-piperidin-1-yl)-(4-{4-[4-(3-methyl-1H-pyrazol-4-yl)-benzotriazol-1-yl]-pyrimidin-2-ylamino}-cyclohexyl)-methanone], the half-inhibitory concentration (IC50) at Human JNK1α1 is 5.2 nM; at Human JNK2α2, 18.6 nM; in the data set with phospho-c-Jun, 434 nM.

The molecule `Cc1n[nH]cc1-c1cccc2c1ccn2-c1ccnc(N[C@H]2CC[C@H](C(=O)N3CCC(O)CC3)CC2)n1` [Compound 12, (4-Hydroxy-piperidin-1-yl)-(4-{4-[4-(3-methyl-1H-pyrazol-4-yl)-indol-1-yl]-pyrimidin-2-ylamino}-cyclohexyl)-methanone] returned a melting point of 215 to 220 °C. The half-inhibitory concentration (IC50) at Human JNK1α1 came to 31.7 nM. Further, at Human JNK2α2, the IC50 came to 121 nM. The same molecule registered an IC50 in the data set on phospho-c-Jun of 2590 nM.

As for `Cc1noc(C)c1-c1cccc2c1ccn2-c1ccnc(N[C@H]2CC[C@H](C(=O)N3CCC(O)CC3)CC2)n1` [Compound 13, (4-{4-[4-(3,5-Dimethyl-isoxazol-4-yl)-indol-1-yl]-pyrimidin-2-ylamino}-cyclohexyl)-(4-hydroxy-piperidin-1-yl)-methanone], the 50% inhibitory concentration (IC50) on Human JNK1α1 stood at 48.4 nM; on Human JNK2α2 it was 225 nM.

For the molecule `Cc1ccncc1-c1cccc2c1ccn2-c1ccnc(N[C@H]2CC[C@H](C(=O)N3CCC(O)CC3)CC2)n1` [Compound 14, (4-Hydroxy-piperidin-1-yl)-(4-{4-[4-(4-methyl-pyridin-3-yl)-indol-1-yl]-pyrimidin-2-ylamino}-cyclohexyl)-methanone], the melting point was 176 to 178 °C. Moreover, the IC50 on Human JNK1α1 was 87.7 nM. The IC50 at Human JNK2α2 is 341 nM.

As to `Cc1ccccc1-c1cccc2c1ccn2-c1ccnc(N[C@H]2CC[C@H](C(=O)N3CCC(O)CC3)CC2)n1` [Compound 15, (4-Hydroxy-piperidin-1-yl)-{4-[4-(4-o-tolyl-indol-1-yl)-pyrimidin-2-ylamino]-cyclohexyl}-methanone], the melting point is 158 to 160 °C. For the same molecule, the IC50 on Human JNK1α1 came out at 64.7 nM. Moreover, the half-inhibitory concentration (IC50) on Human JNK2α2 is 220 nM.

For `O=C([C@H]1CC[C@H](Nc2nccc(-n3ccc4c(-c5ccccc5)cccc43)n2)CC1)N1CCC(O)CC1` [Compound 17, (4-Hydroxy-piperidin-1-yl)-{4-[4-(4-phenyl-indol-1-yl)-pyrimidin-2-ylamino]-cyclohexyl}-methanone], the melting point is 190 to 191 °C. On Human JNK1α1, the IC50 is 262 nM. At Human JNK2α2, the 50% inhibitory concentration (IC50) was 856 nM.

In the case of `O=C([C@H]1CC[C@H](Nc2nccc(-n3ccc4c(-c5ccsc5)cccc43)n2)CC1)N1CCC(O)CC1` [Compound 18, (4-hydroxy-piperidin-1-yl)-{4-[4-(4-thiophen-3-yl-indol-1-yl)-pyrimidin-2-ylamino]-cyclohexyl}-methanone], the melting point lay in the range of 171 to 172 °C. For the same molecule, the IC50 at Human JNK1α1 stood at 47.9 nM. Also, the half-maximal inhibitory concentration (IC50) on Human JNK2α2 was 189 nM.

The term IC50 denotes the concentration needed to halve the response being measured. Broadly, the melting point is the temperature, or range, at which the solid turns liquid.
